Measurements published in ChEMBL document CHEMBL1817626, “The structure-activity relationship of urea derivatives as anti-tuberculosis agents” (Bioorg Med Chem, 2011).
pIC50: −log10 of the molar value. Converted amounts (≈) assume the structure as drawn.

Tests used:
[1] = target: T1, Epoxide hydrolase B (Mycobacterium tuberculosis) (UniProt P95276); test: Inhibition of Mycobacterium tuberculosis recombinant EphB expressed in Escherichia coli BL21 using CMNPC as substrate at 10 nM after 30 mins by fluorescent assay relative to control
T1 sequence (whole entry): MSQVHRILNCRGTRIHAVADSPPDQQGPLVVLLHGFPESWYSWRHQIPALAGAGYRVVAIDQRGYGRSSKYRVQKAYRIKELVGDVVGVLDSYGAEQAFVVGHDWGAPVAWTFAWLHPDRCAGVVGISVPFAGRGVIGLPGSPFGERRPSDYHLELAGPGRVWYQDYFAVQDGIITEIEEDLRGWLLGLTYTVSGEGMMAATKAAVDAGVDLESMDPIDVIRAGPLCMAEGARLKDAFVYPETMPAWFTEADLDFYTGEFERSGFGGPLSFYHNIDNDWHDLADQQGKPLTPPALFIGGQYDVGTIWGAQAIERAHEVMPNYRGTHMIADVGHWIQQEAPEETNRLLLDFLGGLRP

Vero = test: Cytotoxicity against african green monkey Vero cells after 72 hrs by MTT assay; type: cell-based; conditions: Chlorocebus sabaeus
[2] = test system: Mycolicibacterium smegmatis; test: microbe, parasite or virus in culture; conditions: str. MC2 155, 168 h
[3] = target: T2, Hydrolase, alpha/beta hydrolase fold family (Mycobacterium tuberculosis) (UniProt O69638); test: Inhibition of Mycobacterium tuberculosis recombinant EphE expressed in Escherichia coli BL21 using CMNPC as substrate at 10 nM after 30 mins by fluorescent assay relative to control
T2 sequence (whole entry): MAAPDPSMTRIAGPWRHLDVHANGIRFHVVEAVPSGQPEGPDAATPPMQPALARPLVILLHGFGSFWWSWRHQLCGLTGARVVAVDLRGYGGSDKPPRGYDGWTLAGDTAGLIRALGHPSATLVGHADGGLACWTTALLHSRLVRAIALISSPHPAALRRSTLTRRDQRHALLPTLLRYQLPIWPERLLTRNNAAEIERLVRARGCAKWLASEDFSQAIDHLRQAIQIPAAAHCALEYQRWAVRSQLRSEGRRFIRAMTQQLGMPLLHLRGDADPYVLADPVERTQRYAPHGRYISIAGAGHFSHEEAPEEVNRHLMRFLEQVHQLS

Pseudomonas aeruginosa = test: Antibacterial activity against Pseudomonas aeruginosa; type: functional
Staphylococcus aureus = test: Antibacterial activity against Staphylococcus aureus; type: functional
Enterococcus faecium = test: Antibacterial activity against Enterococcus faecium; type: functional
Klebsiella pneumoniae = test: Antibacterial activity against Klebsiella pneumoniae; type: functional
Enterococcus faecalis = test: Antibacterial activity against Enterococcus faecalis; type: functional
Bacillus anthracis = test: microbe, parasite or virus in culture
[4] = test system: Mycobacterium tuberculosis; test: microbe, parasite or virus in culture; conditions: H37Rv, 168 h
[5] = target: T3, Bifunctional epoxide hydrolase 2 (Homo sapiens, UniProt P34913); test: Inhibition of human recombinant soluble epoxide hydrolase using CMNPC as substrate after 10 mins by fluorescent assay
T3 sequence (P34913 whole entry): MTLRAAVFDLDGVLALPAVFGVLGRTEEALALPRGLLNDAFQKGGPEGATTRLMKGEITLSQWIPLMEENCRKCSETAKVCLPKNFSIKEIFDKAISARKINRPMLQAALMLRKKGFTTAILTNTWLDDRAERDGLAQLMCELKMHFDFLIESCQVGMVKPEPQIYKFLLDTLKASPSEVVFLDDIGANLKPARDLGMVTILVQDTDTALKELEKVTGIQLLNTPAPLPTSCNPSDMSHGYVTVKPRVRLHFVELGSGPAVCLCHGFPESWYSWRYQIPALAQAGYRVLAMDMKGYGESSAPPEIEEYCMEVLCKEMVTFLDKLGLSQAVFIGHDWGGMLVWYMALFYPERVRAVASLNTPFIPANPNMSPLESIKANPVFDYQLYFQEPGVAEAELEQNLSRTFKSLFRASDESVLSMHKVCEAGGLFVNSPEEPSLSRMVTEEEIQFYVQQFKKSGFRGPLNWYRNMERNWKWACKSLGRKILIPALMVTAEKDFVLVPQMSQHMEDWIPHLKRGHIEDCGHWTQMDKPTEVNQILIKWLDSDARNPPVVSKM

Escherichia coli [6] = test: Antibacterial activity against Escherichia coli […] TolC; type: functional
Escherichia coli [7] = test: Antibacterial activity against Escherichia coli K12; type: functional; conditions: K-12

Structure (SMILES)	inhibition [1]	IC50 (Vero)	MIC [2]	inhibition [3]	MIC (Pseudomonas aeruginosa)	MIC (Staphylococcus aureus)	MIC (Enterococcus faecium)	MIC (Klebsiella pneumoniae)	MIC (Enterococcus faecalis)	MIC (Bacillus anthracis)	MIC [4]	pIC50 [5]	MIC (Escherichia coli [6])	MIC (Escherichia coli [7])
COc1ccc(NC(=O)NC2C3CC4CC(C3)CC2C4)cc1 (configuration not stated)	95.1%	13.4 µg/mL (≈ 44.6 µM)	100 µg/mL (≈ 333 µM)	83.1%	> 200 µg/mL	> 200 µg/mL	> 200 µg/mL	> 200 µg/mL	> 200 µg/mL	> 200 µg/mL	0.4 µg/mL (≈ 1.33 µM)	7.84		
CCOCCNC(=O)NC12CC3CC(CC(C3)C1)C2	18.7%		> 200 µg/mL	17.6%	> 200 µg/mL	> 200 µg/mL	> 200 µg/mL	> 200 µg/mL	> 200 µg/mL	> 200 µg/mL	50 µg/mL (≈ 188 µM)	6.28	> 200 µg/mL	> 200 µg/mL
O=C(Nc1ccccc1)Nc1ccccc1												6.41		
O=C(Nc1ccc(F)c(F)c1F)NC1C2CC3CC(C2)CC1C3 (configuration not stated)				71.4%	> 200 µg/mL	> 200 µg/mL	> 200 µg/mL	> 200 µg/mL	> 200 µg/mL	> 200 µg/mL			> 200 µg/mL	> 200 µg/mL
O=C(Nc1ccc(F)c(F)c1F)NC1CCCCCCC1	95.7%	63.4 µg/mL (≈ 211 µM)	0.8 µg/mL (≈ 2.66 µM)	91.6%	> 200 µg/mL		> 200 µg/mL	> 200 µg/mL	> 200 µg/mL	> 200 µg/mL		9.40	3.12 µg/mL (≈ 10.4 µM)	> 200 µg/mL
CN(C(=O)N(C)C1C2CC3CC(C2)CC1C3)c1ccc(F)c(F)c1F (configuration not stated)	< 1%		200 µg/mL (≈ 568 µM)	25.2%	> 200 µg/mL	> 200 µg/mL	> 200 µg/mL	> 200 µg/mL	> 200 µg/mL	> 200 µg/mL	12 µg/mL (≈ 34.1 µM)	5.74	12.5 µg/mL (≈ 35.5 µM)	> 200 µg/mL
Fc1ccc(NC(=S)NC2C3CC4CC(C3)CC2C4)c(F)c1F (configuration not stated)	21.3%			35.5%	> 200 µg/mL	> 200 µg/mL	> 200 µg/mL	> 200 µg/mL	> 200 µg/mL	3.12 µg/mL (≈ 9.17 µM)	0.8 µg/mL (≈ 2.35 µM)	8.32	3.12 µg/mL (≈ 9.17 µM)	> 200 µg/mL
CC(C)CCOc1ccc(NC(=O)Nc2ccc(OCCC(C)C)cc2)cc1	14.6%		> 200 µg/mL	88.8%	> 200 µg/mL	> 200 µg/mL	> 200 µg/mL	> 200 µg/mL	> 200 µg/mL	> 200 µg/mL	200 µg/mL (≈ 520 µM)	8.19	3.12 µg/mL (≈ 8.11 µM)	> 200 µg/mL
CN(C(=O)NC1C2CC3CC(C2)CC1C3)c1ccc(F)c(F)c1F (configuration not stated)	6.7%			22.8%	> 200 µg/mL	> 200 µg/mL	> 200 µg/mL	> 200 µg/mL	> 200 µg/mL	> 200 µg/mL	6 µg/mL (≈ 17.7 µM)	7.42	25 µg/mL (≈ 73.9 µM)	> 200 µg/mL
CCCCCCCNC(=O)Nc1ccc(F)c(F)c1F	87.5%	130 µg/mL (≈ 450 µM)	> 200 µg/mL	92.8%	> 200 µg/mL		> 200 µg/mL	> 200 µg/mL	> 200 µg/mL	> 200 µg/mL	6 µg/mL (≈ 20.8 µM)	9.40	6.25 µg/mL (≈ 21.7 µM)	> 200 µg/mL
O=C(Nc1ccc(F)c(F)c1F)NC1CCCC1	86.4%		200 µg/mL (≈ 774 µM)	36%	> 200 µg/mL	> 200 µg/mL	> 200 µg/mL	> 200 µg/mL	> 200 µg/mL	> 200 µg/mL	50 µg/mL (≈ 194 µM)	7.25	> 200 µg/mL	> 200 µg/mL
O=C(Nc1ccc(F)c(F)c1F)OC1C2CC3CC(C2)CC1C3 (configuration not stated)	10.2%		50 µg/mL (≈ 154 µM)	21.4%	> 200 µg/mL	> 200 µg/mL	> 200 µg/mL	> 200 µg/mL	> 200 µg/mL	> 200 µg/mL	6 µg/mL (≈ 18.4 µM)	6.33	12.5 µg/mL (≈ 38.4 µM)	> 200 µg/mL
O=C(Nc1ccc(F)c(F)c1F)NC12CC3CC(CC(C3)C1)C2	89.7%	726 µg/mL (≈ 2240 µM)	> 200 µg/mL	92.2%	> 200 µg/mL		> 200 µg/mL	> 200 µg/mL	> 200 µg/mL	> 200 µg/mL			> 200 µg/mL	> 200 µg/mL
CC[C@@H](CO)NCCN[C@@H](CC)CO [ETHAMBUTOL]											0.01 µg/mL (≈ 0.0489 µM)			
CCCCCCCNC(=O)Nc1cccc(C(F)(F)F)c1F	5.5%		100 µg/mL (≈ 312 µM)	46.8%	> 200 µg/mL	> 200 µg/mL	> 200 µg/mL	> 200 µg/mL	> 200 µg/mL	> 200 µg/mL	3 µg/mL (≈ 9.37 µM)	9.40	> 200 µg/mL	> 200 µg/mL
NNC(=O)c1ccncc1 [ISONIAZID]											0.01 µg/mL (≈ 0.0729 µM)			
